Entries after “also recorded” stand apart in the source; their conditions may differ.
Key:
[1] = molecular target: T1, Alpha1A adrenergic receptor (Homo sapiens, UniProt P35348); assay: Ca2+ flux functional assay at Alpha1A; format: cell-based; settings: for maximal efficacy at Alpha1A: "higher" is compared to the N-methyl compound LSD; for Emax: agonist, Ca2+ flux, max dose, read-out: Alpha 1A % Act @ Max Dose
T1 construct: expressed in transfected cells
T1 sequence (P35348 1-466): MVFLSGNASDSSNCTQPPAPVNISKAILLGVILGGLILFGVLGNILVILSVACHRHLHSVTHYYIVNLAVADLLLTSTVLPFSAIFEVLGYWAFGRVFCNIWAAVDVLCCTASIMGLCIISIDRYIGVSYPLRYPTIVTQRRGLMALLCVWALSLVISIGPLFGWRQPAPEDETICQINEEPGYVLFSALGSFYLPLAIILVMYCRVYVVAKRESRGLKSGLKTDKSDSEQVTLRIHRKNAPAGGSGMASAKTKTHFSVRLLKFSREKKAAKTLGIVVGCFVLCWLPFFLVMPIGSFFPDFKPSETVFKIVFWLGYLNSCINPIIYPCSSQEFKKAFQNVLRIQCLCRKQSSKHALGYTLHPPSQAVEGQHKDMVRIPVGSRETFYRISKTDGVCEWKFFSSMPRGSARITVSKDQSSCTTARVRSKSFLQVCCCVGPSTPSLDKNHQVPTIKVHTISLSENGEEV
Description: (§1) Disclosed compounds were tested for agonist activity at several adrenergic (Alpha1A and Alpha2A) and dopamine (D1 and D2) receptor subtypes using Ca^2+ flux functional assays, with the results summarized in Table 6. Selectivity for the 5-HT2A receptor over these other targets varied depending on the specific target and compound.
(§2) Functional Assays at Adrenergic and Dopamine Receptors. Agonist activity at Alpha1A, Alpha2A, D1, and D2 receptors was determined using a FLIPR Ca^2+ flux assay at WuXi AppTec (Hong Kong) Limited according to their standard protocols. Briefly, stably transfected cells expressing the receptor of interest were grown and plated in a 384 well plate and incubated at 37° C. and 5% CO2 overnight. A solution of 250 mM probenecid in 1 mL FLIPR assay buffer was prepared fresh. This was combined with a fluorescent dye (Fluo-4 Direct™) to make a final assay concentration of 2.5 mM. Compounds were diluted 1:3.16 for 10 points and 750 nL was added to a 384 well compound plate using ECHO along with 30 μL assay buffer. The fluorescent dye was then added to the assay plate along with assay buffer to a final volume of 40 μL. The cell plate was incubated for 50 min at 37° C. and 5% CO2 and placed into the FLIPR Tetra along with the compound plate. 10 μL of references and compounds were then transferred from the compound plate into the cell plate and the fluorescent signal was read.

[2] = molecular target: T2, Alpha2A adrenergic receptor (Homo sapiens, UniProt P08913); assay: Ca2+ flux functional assay at Alpha2A; format: cell-based; settings: for maximal efficacy at Alpha2A: "higher" is compared to the N-methyl compound LSD; for Emax: agonist, Ca2+ flux, max dose, read-out: Alpha 2A % Act @ Max Dose
T2 construct: expressed in transfected cells
T2 sequence (P08913 1-465): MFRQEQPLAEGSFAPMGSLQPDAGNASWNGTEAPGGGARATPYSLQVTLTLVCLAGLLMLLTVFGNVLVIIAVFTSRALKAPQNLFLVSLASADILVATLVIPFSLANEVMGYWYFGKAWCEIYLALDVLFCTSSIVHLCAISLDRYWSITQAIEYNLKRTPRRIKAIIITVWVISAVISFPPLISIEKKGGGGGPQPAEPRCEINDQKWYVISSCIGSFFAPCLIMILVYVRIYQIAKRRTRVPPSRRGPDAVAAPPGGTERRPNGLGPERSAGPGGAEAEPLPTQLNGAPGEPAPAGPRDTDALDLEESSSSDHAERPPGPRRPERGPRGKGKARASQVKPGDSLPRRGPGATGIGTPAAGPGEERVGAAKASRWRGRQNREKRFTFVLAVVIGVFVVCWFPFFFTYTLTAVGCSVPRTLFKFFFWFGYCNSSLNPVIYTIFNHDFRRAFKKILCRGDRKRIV
Description: as §2, with “Compounds were diluted 1:3.16 for 10 points and 750 nL was added to a 384 well compound plate using ECHO along with 30 μL assay buffer.” left out

D1 dopamine receptor = molecular target: T3, D1 dopamine receptor (Homo sapiens, UniProt P21728); assay: Ca2+ flux functional assay at D1; format: cell-based; settings: agonist, max dose, read-out: D1 % Act @ Max Dose
T3 construct: expressed in transfected cells
T3 sequence (P21728 whole entry): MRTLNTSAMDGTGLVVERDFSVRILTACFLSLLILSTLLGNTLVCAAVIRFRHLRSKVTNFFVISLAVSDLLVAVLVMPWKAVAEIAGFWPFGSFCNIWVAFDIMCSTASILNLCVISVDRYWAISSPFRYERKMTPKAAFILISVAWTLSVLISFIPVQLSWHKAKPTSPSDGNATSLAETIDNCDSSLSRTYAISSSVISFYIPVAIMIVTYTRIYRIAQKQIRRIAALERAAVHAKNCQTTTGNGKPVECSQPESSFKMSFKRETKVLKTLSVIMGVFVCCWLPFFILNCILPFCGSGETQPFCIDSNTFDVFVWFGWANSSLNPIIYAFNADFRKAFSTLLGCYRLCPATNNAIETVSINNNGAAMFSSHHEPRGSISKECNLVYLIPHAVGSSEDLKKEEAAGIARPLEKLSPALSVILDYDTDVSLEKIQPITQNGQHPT
Description: as §1, §2

C57BL/6 mice = assay: Mouse head twitch response (HTR) assay (observer-counted); format: in vivo; settings: for efficacy in HTR assay: maximal effect
Description: Agonists of the 5-HT2A receptor are well known to induce this effect in rodents and the potency of this HTR is correlated with hallucinogenic potency in humans.
Animals. Adult male C57BL/6 mice, aged 6-8 weeks (body weight 20-25 g) were used in this experiment. Animals were housed under controlled temperatures and 12-hour light/dark cycles (lights on between 07:00-19:00 h), with ad libitum food and water. This study was carried out in strict accordance with the requirements of the Committee for the Purpose of Control and Supervision of Experiments on Animals (CPCSEA), India. All efforts were made to minimize suffering.
Procedure. Mice were administered one dose of the drug and immediately placed into a small open field for behavioral observation. Animals were observed continuously for 20 mins and the number of head twitches (HTs) were counted by an observer blind to the treatment condition.
Statistical Analysis. The data points shown are the mean±standard error of the mean (SEM). Analysis was performed using GraphPad Prism 6. Curves were fit using a non-linear gaussian distribution to calculate ED50 and Emax values.
Additional disclosed compounds were tested in the mouse head twitch response (HTR) assay according to the procedure described in Example 57 (administered SC). […] Lastly, compounds with much larger benzyl and phenethyl substituents on the amine nitrogen (e.g., 10 and 11) were low efficacy in this assay, consistent with their bias toward arrestin signaling (see Example 55).

5-HT2B receptor = molecular target: T4, 5-HT2B receptor (Homo sapiens, UniProt P41595); assay: 5-HT2B receptor radioligand binding ([3H]LSD); settings: read-out: 5-HT2B Receptor Ki
T4 construct: expressed in transfected cells; host or cells: HEK293, stably transfected
T4 sequence (P41595 whole entry): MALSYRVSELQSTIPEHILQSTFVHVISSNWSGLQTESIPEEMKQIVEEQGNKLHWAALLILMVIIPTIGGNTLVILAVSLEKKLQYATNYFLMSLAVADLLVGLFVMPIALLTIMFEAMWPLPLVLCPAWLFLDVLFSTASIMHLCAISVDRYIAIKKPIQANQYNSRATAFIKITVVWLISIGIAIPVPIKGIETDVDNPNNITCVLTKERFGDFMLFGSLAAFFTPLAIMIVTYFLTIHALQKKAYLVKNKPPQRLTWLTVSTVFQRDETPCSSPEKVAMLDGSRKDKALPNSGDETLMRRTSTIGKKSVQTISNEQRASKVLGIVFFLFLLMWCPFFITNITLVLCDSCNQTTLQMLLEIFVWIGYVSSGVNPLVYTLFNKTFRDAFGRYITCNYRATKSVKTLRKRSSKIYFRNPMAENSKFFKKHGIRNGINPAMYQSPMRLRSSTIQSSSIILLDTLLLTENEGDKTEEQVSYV

| Compound | maximal efficacy at Alpha1A [1] | Emax [1] [%] | maximal efficacy at Alpha2A [2] | Emax (D1 dopamine receptor) [%] | HTR at most efficacious dose (bound) (C57BL/6 mice; SC, 20 min) [HTR] | Ki (5-HT2B receptor) [nM] | also measured |
| --- | --- | --- | --- | --- | --- | --- | --- |
| CCCN1C[C@H](C(=O)N(CC)CC)C=C2c3cccc4[nH]cc(c34)C[C@H]21 [Compound 1, (6aR,9R)—N,N-diethyl-7-propyl-4,6,6a,7,8,9-hexahydroindolo[4,3-fg]quinoline-9-carboxamide] | substantially higher maximal efficacy | 80.6 | substantially higher maximal efficacy | 109 | > 15 |  | Emax [2]: 58.3%; head twitch response (C57BL/6 mice; 20 min observation, FIG. 1): robust and dose-dependent HTR |
| CCN(CC)C(=O)[C@@H]1C=C2c3cccc4[nH]cc(c34)C[C@H]2N(CCCF)C1 [Compound 2, (6aR,9R)—N,N-diethyl-7-(3-fluoropropyl)-4,6,6a,7,8,9-hexahydroindolo[4,3-fg]quinoline-9-carboxamide] | substantially higher maximal efficacy | 110 | substantially higher maximal efficacy | 114 | > 15 |  | Emax [2]: 65% |
| CCCN1C[C@H](C(=O)N[C@H](C)CC)C=C2c3cccc4[nH]cc(c34)C[C@H]21 [Compound 3, (6aR,9R)—N—((R)-sec-butyl)-7-propyl-4,6,6a,7,8,9-hexahydroindolo[4,3-fg]quinoline-9-carboxamide] | substantially higher maximal efficacy | 125 | substantially higher maximal efficacy | 121 | > 15 |  | Emax [2]: 96.8%; # HTR/20 min at Most Efficacious Dose (C57BL/6 mice; SC, most efficacious dose 0.32 mg/kg): 27.0 HTR/20 min |
| CCCN1C[C@H](C(=O)N2[C@@H](C)C[C@@H]2C)C=C2c3cccc4[nH]cc(c34)C[C@H]21 [Compound 4, ((2S,4S)-2,4-dimethylazetidin-1-yl)((6aR,9R)-7-propyl-4,6,6a,7,8,9-hexahydroindolo[4,3-fg]quinolin-9-yl)methanone] | substantially higher maximal efficacy | 119 | substantially higher maximal efficacy | 114 |  |  | Emax [2]: 103%; efficacy in HTR assay (C57BL/6 mice; SC): less efficacious than its N-methyl counterpart compound Int11; also recorded: lower efficacy than analogous compounds bearing other amide substituents |
| CCCN1C[C@H](C(=O)NC(CC)CC)C=C2c3cccc4[nH]cc(c34)C[C@H]21 [Compound 6, (6aR,9R)—N-(pentan-3-yl)-7-propyl-4,6,6a,7,8,9-hexahydroindolo[4,3-fg]quinoline-9-carboxamide] | substantially higher maximal efficacy |  | substantially higher maximal efficacy | 93.1 | > 15 |  |  |
| C=CCN1C[C@H](C(=O)N[C@H](C)CC)C=C2c3cccc4[nH]cc(c34)C[C@H]21 [Compound 8, (6aR,9R)-7-allyl-N—((R)-sec-butyl)-4,6,6a,7,8,9-hexahydroindolo[4,3-fg]quinoline-9-carboxamide] |  |  |  |  | > 15 |  |  |
| CCN(CC)C(=O)[C@@H]1C=C2c3cccc4[nH]cc(c34)C[C@H]2N(CCc2ccccc2OC)C1 [Compound 11, (6aR,9R)—N,N-diethyl-7-(2-methoxyphenethyl)-4,6,6,7,8,9-hexahydroindolo[4,3-fg]quinoline-9-carboxamide] | very low efficacy agonists |  | very low efficacy agonists |  |  |  | ED50 (HTR) (C57BL/6 mice; SC, 20 min, curve fit poor in some cases): 2.205 mg/kg; Emax, HTR/20 min (C57BL/6 mice; SC, curve fit poor in some cases): 19.79 HTR/20 min; efficacy in HTR assay (C57BL/6 mice; SC): low efficacy; # HTR/20 min at Most Efficacious Dose (C57BL/6 mice; SC, most efficacious dose 3.2 mg/kg): 12.0 HTR/20 min |
| CCN(CC)C(=O)[C@@H]1C=C2c3cccc4[nH]cc(c34)C[C@H]2N(Cc2cccc(OC)c2)C1 [Compound 18, (6aR,9R)—N,N-diethyl-7-(3-methoxybenzyl)-4,6,6a,7,8,9-hexahydroindolo[4,3-fg]quinoline-9-carboxamide] |  |  |  |  |  | 188 |  |
| CCN(CC)C(=O)[C@@H]1C=C2c3cccc4[nH]cc(c34)C[C@H]2N(Cc2ccc(OC)cc2)C1 [Compound 19, (6aR,9R)—N,N-diethyl-7-(4-methoxybenzyl)-4,6,6a,7,8,9-hexahydroindolo[4,3-fg]quinoline-9-carboxamide] |  |  |  |  |  | 225 |  |
| CCN(CC)C(=O)[C@@H]1C=C2c3cccc4[nH]cc(c34)C[C@H]2N(Cc2ccc(F)cc2)C1 [Compound 49, (6aR,9R)—N,N-diethyl-7-(4-fluorobenzyl)-4,6,6a,7,8,9-hexahydroindolo[4,3-fg]quinoline-9-carboxamide] |  |  |  |  |  | 16.9 |  |
| CCN(CC)C(=O)[C@@H]1C=C2c3cccc4[nH]cc(c34)C[C@H]2N(Cc2ccc(Cl)cc2)C1 [Compound 50, (6aR,9R)-7-(4-chlorobenzyl)-N,N-diethyl-4,6,6a,7,8,9-hexahydroindolo[4,3-fg]quinoline-9-carboxamide] |  |  |  |  |  | 53.7 |  |
| CCN(C)C(=O)[C@@H]1C=C2c3cccc4[nH]cc(c34)C[C@H]2N(Cc2ccccc2)C1 [Compound 85, (6aR,9R)-7-benzyl-N-ethyl-N-methyl-4,6,6a,7,8,9-hexahydroindolo[4,3-fg]quinoline-9-carboxamide] |  |  |  |  |  | 32.4 |  |
| CC[C@@H](C)NC(=O)[C@@H]1C=C2c3cccc4[nH]cc(c34)C[C@H]2N(C)C1 [Int8] |  |  |  |  | < 15 |  |  |
| CCN(CC)C(=O)[C@@H]1C=C2c3cccc4[nH]cc(c34)C[C@H]2N(C)C1 [LSD, lysergic acid diethylamide, reference compound] |  | 60.3 |  | 94.9 |  |  |  |
